Key:
[1] = tested on: drug-sensitive CCRF-CEM leukemia cells; test: Resazurin reduction assay, CCRF-CEM; format: cell-based; conditions: Homo sapiens, 72 h
Source text: (§1) The cell lines used in the present work, their origins and maintenance conditions were previously reported. In brief, drug-sensitive CCRF-CEM and multidrug resistant P-glycoprotein-over-expressing CEM/ADR5000 leukemia cells, MDA-MB-231-pcDNA3 breast cancer cells and their transfectant subline MDA-MB-231-BCRP clone 23, HCT116 (p53^+/+) colon cancer cells and its knockout clone HCT116 (p53^-/-), U87.MG glioblastoma multiform cells and their transfectant subline U87.MGΔEGFR as well as HEK293 human embryonic kidney cells transfected with or without a cDNA for ABCB5 were used. The human peripheral mononuclear cells (PMNC) were isolated from fresh blood samples of a healthy donor by using Histopaque® (Sigma-Aldrich, Taufkirchen, Germany).
(§2) Resazurin reduction assay was conducted to test the cytotoxicity of the compounds. This assay is based on the reduction of resazurin to resorufin by viable cells. […] Briefly, aliquots of 0.5×10^4 adherent cells which were allowed to attach overnight and 1×10^4 suspension cells per well were seeded in 96-well-plates with or without the addition of varying concentrations of the test substance to get a total volume of 200 μL/well. After 72 h incubation and addition of resazurin (Sigma-Aldrich) for 4 h, staining was measured by an Infinite M2000 ProTM plate reader (Tecan, Germany) using an excitation wavelength of 544 nm and an emission wavelength of 590 nm. Each assay was independently performed for at least three times, with six parallel replicates each. The protocol has been recently reported. Fifty percent inhibition concentrations (IC50) represent the drug concentrations required to inhibit 50% of cell proliferation, which were fitted with nonlinear regression using GraphPad® Prism7.

[2] = tested on: multidrug-resistant P-glycoprotein-overexpressing CEM/ADR5000 leukemia cells; test: Resazurin reduction assay, CEM/ADR5000; format: cell-based, human; conditions: for IC50: Homo sapiens, CEM/ADR5000, resazurin assay, 72 h
Source text: as §1, §2

CCRF-CEM cells [3] = test: Cell cycle analysis (PI, flow cytometry); format: cell-based, human; conditions: 0.01 μM and 0.1 μM, 24 h
Experimental: The cells were collected, washed in PBS and fixed with ice-cold 96% ethanol. After washing the cells with PBS again, the cells were dissolved in PBS and stained with propidium iodide (PI, Sigma-Aldrich) at a final concentration of 50 μg/mL for 15 min in the dark. Cell cycle analyses were performed using a BD Accuri™ C6 Flow cytometer (Becton-Dickinson, Heidelberg, Germany) at 488 nm excitation wavelength, and emission was measured by a 610/20 nm band pass filter. All experiments were performed at least in triplicates. The protocol has been recently reported by us.

CCRF-CEM cells [4] = test: Annexin V/PI detection of apoptosis and necrosis; format: cell-based, human; conditions: 0.1 μM, 72 h
Source text: A commercial annexin V/PI detection apoptosis kit was used to detect early apoptosis and necrosis according to the manufacturer’s instructions (Life Technologies, Carlsbad, CA, USA). Annexin V is a calcium-dependent phospholipid-binding protein, which binds to phosphatidylserine (PS). PS is predominantly located at the inner side of the plasma membrane under normal conditions and moves to outer surface of the membrane upon the onset of early apoptosis. This can be detected FITC-labeled annexin V. PI is a marker of late apoptosis and necrosis. We treated aliquots of 1×10^6 CCRF-CEM cells with 0.5-, 1-, 2- and 4-fold IC50 of Aloe-emodin for 48, 72 or 96 h, respectively. After washing the cells with PBS, they were stained with annexin V/FITC at room temperature for 10-15 min. Subsequently, cells were washed again and stained with PI in the dark. Then, the results were analyzed by a BD Accuri™ C6 flow cytometer at excitation wavelength 488 nm and emission wavelength 530 nm to record annexin V/FITC signals. The fluorescence of PI was detected at 488 nm excitation and was measured by a 610/20 nm band pass filter. At least three independent experiments were performed..

CCRF-CEM cells [5] = test: Mitochondrial membrane potential (JC-1, flow cytometry); format: cell-based, human; conditions: CCRF-CEM, 0.01, 0.1, and 1 μM, 48 h
Source text: The JC-1 Mitochondrial Membrane Potential Assay Kit (Cayman Chemical, Ann Arbor, MI, USA) was applied for the detection of MMP by flow cytometry according to the manufacturer’s instructions. The cationic dye, 5, 5’, 6, 6’- tetrachloro- 1, 1’, 3, 3’- tetraethylbenzimidazolylcarbocyanine iodide (JC-1) enters the mitochondria and changes its fluorescent properties based on the aggregation of the probe. In healthy cells having high MMP, JC-1 forms complexes known as J-aggregates with intense red fluorescence. On the other hand, in cells with low MMP, JC-1 remains in its monomeric form showing green fluorescence. […] A LSR-Fortessa FACS analyzer (Becton–Dickinson) was used to detect the J-aggregate form of JC-1 with an excitation wavelength of 535 ± 20 nm and an emission wavelength of 590 ± 20 nm as well as the monomeric form of JC-1 at excitation and emission wavelengths of 485 and 535 nm, respectively. The results were analyzed by the FlowJo software (Celeza, Olten, Switzerland). 2×10^4 cells were counted for each experiment which were repeated in triplicate.

Structure (SMILES) | IC50 [1] [µM] | IC50 [2] [µM] | degree of resistance (IC50 CEM/ADR5000 divided by IC50 CCRF-CEM) ([2]; collateral sensitivity of CEM/ADR5000) [fold] | cell cycle arrest (CCRF-CEM cells [3]) | apoptotic or necrotic cell death (CCRF-CEM cells [4]) | MMP depolarization (JC-1 fluorescence) (CCRF-CEM cells [5])
COc1cc(O)c2c(c1)C(=O)c1cc(C)cc(O)c1C2=O [physcion] | 124 | 74.8 | 0.61 |  |  | 
COc1cccc2c1C(=O)c1c(O)c3c(c(O)c1C2=O)C[C@@](O)(C(=O)CO)C[C@@H]3O[C@H]1C[C@H](N)[C@H](O)[C@H](C)O1 [doxorubicin, Doxorubicin, reference compound] | 0.0007 | 11 |  | induced both S- and G2/M-arrest | late apoptosis and early necrosis | shift from red to green fluorescence
Cc1cc(O)c2c(c1)C(=O)c1cc(O)cc(O)c1C2=O [emodin, Emodin] | 35.6 | 35.3 |  |  |  | 
O=C(O)c1cc(O)c2c(c1)C(=O)c1cccc(O)c1C2=O [rhein] | 34.4 | 46.9 |  |  |  | 

Reference: PMC5915154, “Aloe-emodin as drug candidate for cancer therapy” (Oncotarget, 2018)
